By IC50 is commonly meant the point on the concentration scale where inhibition reaches its midpoint. As usually defined, the melting point is the temperature, or range, at which the solid turns liquid.

Like-named read-outs stand apart in the source and are kept apart here.

Data set [1] has as its system estrogen-dependent human breast cancer MCF-7 cell proliferation induced by 17-β-estradiol. Description: In vitro antiestrogenic activity: MCF-7 cell proliferation assay (MTT) in the presence of 17-β-estradiol. It is filed as cell-based. As to conditions: inhibition of MCF-7 cell proliferation induced by 17-β-estradiol, read-out: IC50 (μM) ± S.E.M. MCF-7 (in vitro antiestrogenic activity). How it is done:
The in vitro antiestrogenic activity of the selected target compounds IIIa,b, IIId, and IIIf,g was studied through an estrogen-dependent human breast cancer MCF-7 cell proliferation assay in the presence of 17-β-estradiol. The ability of the tested compounds to inhibit cell proliferation induced by 17-β-estradiol was determined (Table 3 and Figure 4).
The antiestrogenic activity of the test compounds was examined by performing a 3-(4,5-dimethylthiazol-2-yl)-2,5-diphenyl tetrazolium bromide (MTT) assay of the MCF-7 cell line. In this experiment, MCF-7 cells were treated with 17β-estradiol (+ve cell proliferation compound). The effect of various concentrations of the tested compounds on cell proliferation in the presence of 17β-estradiol was measured.

Data set [2] has as its system MDA-MB-231 (triple-negative breast cancer cell line, TNBC). Kind of data set: MTT cytotoxicity assay, MDA-MB-231 cell line. How it is done: (§1) The cytotoxic activity of the synthesized compounds IIIa–h was evaluated in vitro against the human breast adenocarcinoma MCF7 (ER^+ breast cancer cell line) and the MDA-MB-231 (triple-negative breast cancer cell line, TNBC), using camptothecin as a pyranone-bearing reference standard.
(§2) The cytotoxicity of compounds Ia,b, IIa,b, and IIIa–h against the MCF-7 cell line (ER+ breast cancer cell line) and MDA-MB-231 (triple-negative breast cancer cell line, TNBC) was determined using camptothecin as a pyranone-bearing reference standard.

Data set [3] has as its system MCF-7 cell line (ER+ breast cancer cell line). Kind of data set: MTT cytotoxicity assay, MCF-7 cell line. As to conditions: for IC50: Homo sapiens, MCF7, read-out: IC50 (μM) ± S.E.M MCF-7 (cytotoxicity). Here is the method:
as §1, §2
Background: Tetrazolium assays rely on reduction of a dye to a coloured formazan, in cell work by metabolically active cells.

Another data set addresses T1, aromatase (Homo sapiens, UniProt P11511).
T1 sequence (P11511 1-503): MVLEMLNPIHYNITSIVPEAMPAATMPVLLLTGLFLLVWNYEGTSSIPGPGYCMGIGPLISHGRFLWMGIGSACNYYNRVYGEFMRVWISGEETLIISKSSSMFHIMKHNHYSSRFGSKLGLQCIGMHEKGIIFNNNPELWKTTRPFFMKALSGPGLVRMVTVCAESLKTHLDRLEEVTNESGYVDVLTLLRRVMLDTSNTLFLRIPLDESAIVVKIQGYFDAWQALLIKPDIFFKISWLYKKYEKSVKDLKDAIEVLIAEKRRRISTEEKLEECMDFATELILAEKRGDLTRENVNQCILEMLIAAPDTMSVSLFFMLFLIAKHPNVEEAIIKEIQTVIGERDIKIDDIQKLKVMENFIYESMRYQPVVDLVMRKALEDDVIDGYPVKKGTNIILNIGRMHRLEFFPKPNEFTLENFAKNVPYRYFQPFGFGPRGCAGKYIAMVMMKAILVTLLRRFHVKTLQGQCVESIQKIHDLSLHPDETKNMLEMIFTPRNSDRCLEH
Description: In vitro aromatase inhibition (sandwich enzyme immunoassay). As to conditions: for IC50: IC50 (μM) ± S.E.M. (aromatase inhibition activity).

Another data set relates to MCF-7. Also noted: method as in PMID 9391160, PMID 15177442. As to conditions: cited from earlier work.
[4] abbreviates: Homo sapiens, MDA-MB-231, read-out: IC50 (μM) ± S.E.M MDA-MB-231 (cytotoxicity), MTT assay, MDA-MB-231 cells.
[5] abbreviates: ratio of IC50 values vs camptothecin.

Description for aromatase: Sandwich enzyme immunoassay was adopted for aromatase inhibition assessment [38].

On to `CC(C)COC(=O)c1ccccc1C(=O)O` [Monoisobutyl phthalate (MIBP), Monoisobutyl phthalate, reference compound], for which the IC50 in data set [1] worked out at 46.4 ± 3.14 µM.

`COc1ccc2c(CC(=O)Nc3ccc(OC)c(O)c3)cc(=O)oc2c1` [IIIh, N-(3-Hydroxy-4-methoxyphenyl)-2-(7-methoxy-2-oxo-2H-chromen-4-yl)acetamide] had a melting point of 188 to 189 °C. Further, the IC50 in data set [2] (setting [4]) came out at 14.1 ± 0.61 µM. Further, in data set [3], the 50% inhibitory concentration (IC50) was found to be 5100 ± 241 µM.

As for `CC[C@@]1(O)C(=O)OCc2c1cc1n(c2=O)Cc2cc3ccccc3nc2-1` [Camptothecin, reference compound], the IC50 in data set [2] (setting [4]) is 19.2 ± 1.14 µM; in data set [3], 4.41 ± 0.28 µM.

Take `COC(=O)Cc1cc(=O)oc2cc(OC)ccc12` [Ib, Methyl (7-methoxy-2-oxo-2H-chromen-4-yl)acetate]: the IC50 came to 1 ± 0.04 µM in data set [2] (setting [4]), 14.5 ± 1.32 µM against aromatase and 1.44 ± 0.02 µM in data set [3]. Moreover, in data set [2] (setting [5]), the “potency relative to the reference standard camptothecin, MDA-MB-231” value was “about 19 times”.

Regarding `COc1ccc2oc(=O)cc(CC(=O)Nc3ccc(OC)c(O)c3)c2c1` [IIIe, N-(3-Hydroxy-4-methoxyphenyl)-2-(6-methoxy-2-oxo-2H-chromen-4-yl)acetamide], the melting point is 173 to 174 °C. Moreover, the IC50 in data set [2] (setting [4]) amounted to 2.1 µM. The same molecule had an IC50 in data set [2] (human) of 2.14 ± 0.06 µM. Besides, at aromatase, the “aromatase inhibition activity (in words)” value is listed as “moderate inhibitory activity” and the IC50 is 17.4 µM. Further, the IC50 in data set [3] is 15.5 ± 1.24 µM.

On to `COc1ccc2oc(=O)cc(CC(=O)Nc3ccc(Br)cc3)c2c1` [IIId, N-(4-Bromophenyl)-2-(6-methoxy-2-oxo-2H-chromen-4-yl)acetamide], for which the melting point fell in the range of 202 to 203 °C. Further, the IC50 in data set [2] (setting [4]) came to 22.8 ± 1.54 µM. Further, on aromatase, the IC50 is 69.9 ± 3.91 µM. For the same molecule, the IC50 in data set [1] (Homo sapiens, MCF7) was determined as 214 ± 12.1 µM. In data set [3], the IC50 came out at 2.8 ± 0.04 µM.

In turn, `COc1ccc2c(CC(=O)N3CCCCC3)cc(=O)oc2c1` [IIIb, 7-Methoxy-4-(2-oxo-2-(piperidin-1-yl)ethyl)-2H-chromen-2-one] showed a melting point of 135 to 136 °C. Moreover, the IC50 in data set [2] (setting [4]) stood at 12.9 ± 1.17 µM. Half-maximal inhibition on aromatase (IC50) required 89.1 ± 6.2 µM. Besides, in data set [1] (Homo sapiens, MCF7), the IC50 was determined as 29.5 ± 3.25 µM. In addition, the IC50 in data set [3] amounted to 0.32 ± 0.04 µM. In addition, in data set [3] (setting [5]), the “potency relative to the reference standard camptothecin, MCF-7” value is reported as “about 14 fold”.

Molecule `COc1ccc2c(CC(=O)Nc3ccc(Br)cc3)cc(=O)oc2c1` [IIIg, N-(4-Bromophenyl)-2-(7-methoxy-2-oxo-2H-chromen-4-yl)acetamide] yielded a melting point of 212 to 213 °C. Besides, the IC50 in data set [2] (setting [4]) was determined as 90.8 ± 3.84 µM. Moreover, the IC50 at aromatase worked out at 27.1 ± 1.38 µM. Moreover, the IC50 in data set [1] (Homo sapiens, MCF7) was 64.4 ± 4.12 µM. Also, the IC50 in data set [3] is 0.72 ± 0.02 µM.

Consider `O=c1oc2cc(O)ccc2c(Cc2ccc(OCCN3CCCCC3)cc2)c1-c1ccccc1` [SP500263], for which, in the data set on MCF-7, the “agonist activity in the MCF-7 proliferation assay” value was “undesirable agonist activity”.

As for `COc1ccc2oc(=O)cc(CC(=O)O)c2c1` [IIa, (6-Methoxy-2-oxo-2H-chromen-4-yl)acetic acid], the melting point lay within 178 to 179 °C. Moreover, the IC50 in data set [2] (setting [4]) turned out to be 80.2 ± 4.23 µM. Half-maximal inhibition on aromatase (IC50) was put at 32.2 ± 2.39 µM. In data set [3], the IC50 stood at 1 ± 0.03 µM.

Turning to `COc1ccc2oc(=O)cc(CC(=O)Nc3ccccc3)c2c1` [IIIc, 2-(6-Methoxy-2-oxo-2H-chromen-4-yl)-N-phenylacetamide], the melting point was 219 to 220 °C. Moreover, in data set [2] (setting [4]), the IC50 was determined as 4.6 ± 0.32 µM. This molecule also yielded an IC50 at aromatase of 1100 ± 52.4 µM. Moreover, the IC50 in data set [3] stood at 10.9 ± 0.99 µM.

In turn, `COC(=O)Cc1cc(=O)oc2ccc(OC)cc12` [Ia, Methyl (6-methoxy-2-oxo-2H-chromen-4-yl)acetate] yielded a melting point of 153 to 154 °C. Also, in data set [2] (setting [4]), the IC50 was 47.5 ± 2.51 µM. The IC50 in data set [3] worked out at 13.9 ± 1.15 µM.

As for `COc1ccc2oc(=O)cc(CC(=O)N3CCCCC3)c2c1` [IIIa, 6-Methoxy-4-(2-oxo-2-(piperidin-1-yl)ethyl)-2H-chromen-2-one], the melting point lay within 167 to 168 °C. The IC50 in data set [2] (setting [4]) came to 38.2 ± 1.52 µM. Also, at aromatase, the IC50 was determined as 22.5 ± 3.4 µM. Also, the IC50 in data set [1] (Homo sapiens, MCF7) was 62 ± 4.02 µM. The IC50 in data set [3] was determined as 1.82 ± 0.03 µM.

As to `COc1ccc2c(CC(=O)O)cc(=O)oc2c1` [IIb, (7-methoxy-2-oxo-2H-chromen-4-yl)acetic acid], the IC50 in data set [2] (setting [4]) was 216 ± 13.2 µM; in data set [3] it was 8.08 ± 0.25 µM.

Turning to `COc1ccc2c(CC(=O)Nc3ccccc3)cc(=O)oc2c1` [IIIf, 2-(7-Methoxy-2-oxo-2H-chromen-4-yl)-N-phenylacetamide], the melting point fell in the range of 217 to 218 °C. The IC50 in data set [2] (setting [4]) came out at 6.9 µM. This molecule showed an IC50 in data set [2] (human) of 6.94 ± 0.41 µM. The same molecule yielded an IC50 against aromatase of 332 ± 18.2 µM. In addition, the IC50 in data set [1] (Homo sapiens, MCF7) is 99.6 ± 6.39 µM. In addition, the IC50 in data set [3] is 5.69 ± 0.08 µM.
